Earlier results as cited in PubChem BioAssay AID1259409 (Chemical Carcinogenesis Research Information System (CCRIS), 2018).

Tested on: rodent chemically induced tumor inhibition, incidence and multiplicity
Assay: CCRIS tumor inhibitor studies

Q: For `CCCCCCCCCCCCN=C=S`, which “tumour outcome (control, treated, inhibition, significance)” value (Carcinogen: 4(METHYLNITROSAMINO)-1-(3-PYRIDYL)-1-BUTANONE, 64091-91-4, Dose [Inhibitor]: 0, 1 UMOL IN 0.1 ML CORN OIL ONCE 2 HR PRIOR TO CARCINOGEN DOSE (STUDY DURATION: 16 WK), Route [Inhibitor]: GAVAGE, Species: MOUSE, Strain/Sex: STRAIN-A/FEMALE, Target Tissue: Type of Lesion: LUNG: ADENOMA, Dose [Carcinogen]: 10 UMOL IN 0.1 ML SALINE ONCE, Promoter: NONE USED) is on record?
A: The value was 100%, 35%, 65%, p<0.001.

Q: And the “tumour outcome (control, treated, inhibition, significance)” value (Carcinogen: 4-(METHYLNITROSAMINO)-1-(3-PYRIDYL)-1-BUTANONE, 64091-91-4, Dose [Inhibitor]: 0, 1 UMOL ONCE 2 HR PRIOR TO CARCINOGEN DOSE (STUDY DURATION: 16 WK), Route [Inhibitor]: GAVAGE, Species: MOUSE, Strain/Sex: STRAIN-A/FEMALE, Target Tissue: Type of Lesion: LUNG: ADENOMA, Dose [Carcinogen]: 10 UMOL IN 0.1 ML SALINE ONCE, Promoter: NONE USED)?
A: The value was 100%, 35%, 65%, p<0.05.

Q: And the “tumour outcome (control, treated, inhibition, significance)” value (Carcinogen: 4-(METHYLNITROSAMINO)-1-(3-PYRIDYL)-1-BUTANONE, 64091-91-4, Dose [Inhibitor]: 0, 5 UMOL ONCE 2 HR PRIOR TO CARCINOGEN DOSE (STUDY DURATION: 16 WK), Route [Inhibitor]: GAVAGE, Species: MOUSE, Strain/Sex: STRAIN-A/FEMALE, Target Tissue: Type of Lesion: LUNG: ADENOMA, Dose [Carcinogen]: 10 UMOL IN 0.1 ML SALINE ONCE, Promoter: NONE USED)?
A: The value was 100%, 25%, 75%, p<0.05.

Q: For `O=c1c(O)c(-c2cc(O)c(O)c(O)c2)oc2cc(O)cc(O)c12`, which “tumour outcome (control, treated, inhibition, significance)” value (Carcinogen: 7,12-DIMETHYLBENZ[A]ANTHRACENE, 57-97-6, Dose [Inhibitor]: 100 UG IN 0.2 ML ACETONE ONCE 5 MIN BEFORE CARCINOGEN TREATMENT (STUDY DURATION: 31 WK), Route [Inhibitor]: DERMAL, Species: MOUSE, Strain/Sex: CD-1/FEMALE, Target Tissue: Type of Lesion: SKIN: PAPILLOMA, Dose [Carcinogen]: 10 NMOL IN 0.2 ML ACETONE ONCE, Promoter: 12-O-TETRADECANOYLPHORBOL-13-ACETATE, 16561-29-8) is on record?
A: Its value is 87%, 85%, 2%, not calculated.

Q: And the “tumour outcome (control, treated, inhibition, significance)” value (Carcinogen: (+/-)-7BETA,8ALPHA-DIHYDROXY-9ALPHA,10ALPHA-EPOXY-7,8,9,10-TETRAHYDROBENZO[A]PYR ENE, 58917-67-2, Dose [Inhibitor]: 0, 1400 NMOL (TOTAL DOSE) 10 MIN PRIOR TO CARCINOGEN DOSE INJECTED AS 1/7, 2/7, AND 4/7 OF THE TOTAL ON DAYS 1, 8, AND 1, Route [Inhibitor]: INTRAPERITONEAL, Species: MOUSE, Strain/Sex: ICR/MALE,FEMALE, Target Tissue: Type of Lesion: LUNG: TUMOR, Dose [Carcinogen]: 30 NMOL (TOTAL DOSE) INJECTED IN DOSES OF 1/7, 2/7, AND 4/7 ON DAYS 1,8, AND 15 OF LIFE, RESPECTIVELY, Promoter: NONE USED)?
A: The value was 93%, 65%, 30%, p<0.05.

Q: What about the “tumour outcome (control, treated, inhibition, significance)” value (Carcinogen: (+/-)-7BETA,8ALPHA-DIHYDROXY-9ALPHA,10ALPHA-EPOXY-7,8,9,10-TETRAHYDROBENZO[A]PYR ENE, 58917-67-2, Dose [Inhibitor]: 0, 1400 NMOL (TOTAL DOSE) APPLIED 10 MIN PRIOR TO CARCINOGEN DOSE INJECTED AS 1/7, 2/7, AND 4/7 OF THE TOTAL ON DAYS 1,, Route [Inhibitor]: INTRAPERITONEAL, Species: MOUSE, Strain/Sex: ICR/MALE,FEMALE, Target Tissue: Type of Lesion: LUNG: TUMOR, Dose [Carcinogen]: 15 NMOL (TOTAL DOSE) INJECTED IN DOSES OF 1/7, 2/7, AND 4/7 ON DAYS 1, 8, AND 15 OF LIFE, RESPECTIVELY, Promoter: NONE USED) of the same compound?
A: The value was 63%, 36%, 43%, p<0.05.

Q: And the “tumour outcome (control, treated, inhibition, significance)” value (Carcinogen: BENZO[A]PYRENE, 50-32-8, Dose [Inhibitor]: 0, 1400 NMOL (TOTAL DOSE) APPLIED 10 MIN PRIOR TO CARCINOGEN DOSE INJECTED AS 1/7, 2/7, AND 4/7 OF THE TOTAL ON DAYS 1,, Route [Inhibitor]: INTRAPERITONEAL, Species: MOUSE, Strain/Sex: ICR/MALE,FEMALE, Target Tissue: Type of Lesion: LUNG: TUMOR, Dose [Carcinogen]: 450 NMOL (TOTAL DOSE) INJECTED IN DOSES OF 1/7, 2/7, AND 4/7 ON DAYS 1, 8, AND 15 OF LIFE, RESPECTIVELY, Promoter: NONE USED)?
A: The value was 73%, 79%, -8%, not significant.

Q: For `C[S+](C)CC(=O)[O-]`, which “tumour outcome (control, treated, inhibition, significance)” value (Carcinogen: 7,12-DIMETHYLBENZ[A]ANTHRACENE, 57-97-6, Dose [Inhibitor]: 0, 0.005 MOL/KG DIET BEGINNING 2 WK PRIOR TO CARCINOGEN AND CONTINUED FOR STUDY DURATION (STUDY DURATION: 25 WK), Route [Inhibitor]: ORAL, Species: RAT, Strain/Sex: CD-1/FEMALE, Target Tissue: Type of Lesion: MAMMARY GLAND: ADENOCARCINOMA, Dose [Carcinogen]: 10 MG ONCE, Promoter: NONE USED) is on record?
A: The value was 20/25 (80%), 19/25 (76%), 5%, not significant.

Q: And the “tumour outcome (control, treated, inhibition, significance)” value (Carcinogen: 7,12-DIMETHYLBENZ[A]ANTHRACENE, 57-97-6, Dose [Inhibitor]: 0, 0.01 MOL/KG DIET BEGINNING 2 WK PRIOR TO CARCINOGEN AND CONTINUED FOR STUDY DURATION (STUDY DURATION: 25 WK), Route [Inhibitor]: ORAL, Species: RAT, Strain/Sex: CD-1/FEMALE, Target Tissue: Type of Lesion: MAMMARY GLAND: ADENOCARCINOMA, Dose [Carcinogen]: 10 MG ONCE, Promoter: NONE USED)?
A: The value was 20/25 (80%), 21/25 (84%), -5%, not significant.

Q: What about the “tumour outcome (control, treated, inhibition, significance)” value (Carcinogen: 7,12-DIMETHYLBENZ[A]ANTHRACENE, 57-97-6, Dose [Inhibitor]: 0, 0.02 MOL/KG DIET BEGINNING 2 WK PRIOR TO CARCINOGEN AND CONTINUED FOR STUDY DURATION (STUDY DURATION: 25 WK), Route [Inhibitor]: ORAL, Species: RAT, Strain/Sex: CD-1/FEMALE, Target Tissue: Type of Lesion: MAMMARY GLAND: ADENOCARCINOMA, Dose [Carcinogen]: 10 MG ONCE, Promoter: NONE USED) of the same compound?
A: The value was 20/25 (80%), 18/25 (72%), 10%, not significant.

Q: With `C=C1C(=O)O[C@@H]2/C=C(\C)CCC=C(C)CC[C@@H]12` as the compound, how does the “tumour outcome (control, treated, inhibition, significance)” value (Carcinogen: AZOXYMETHANE, 25843-45-2, Dose [Inhibitor]: 0, 0.02% IN DIET FOR 4 WK BEGINNING AT TIME OF CARCINOGEN TREATMENT (STUDY DURATION: 33 WK), Route [Inhibitor]: ORAL, Species: RAT, Strain/Sex: F344/MALE, Target Tissue: Type of Lesion: INTESTINE: ADENOMA OR ADENOCARCINOMA, Dose [Carcinogen]: 15 MG/KG BW 1/WK FOR 3 WK, Promoter: NONE USED) read?
A: The value was 15/30 (50%), 5/29 (17%), 66%, p<0.05.
